# Biological target: T1, VR1 (Homo sapiens, UniProt Q8NER1)
# T1 construct: expressed in transfected cells; host or cells: 293 cells ("293 neurons" [sic])
# Experiment: High throughput calcium imaging assay of VR1 antagonists (Fura2, Flex Station, 96 well); further: test concentration or dose not given here
# Assay type: cell-based
# Conditions: Table 1 activity class
# T1 sequence (Q8NER1 whole entry, species assumed): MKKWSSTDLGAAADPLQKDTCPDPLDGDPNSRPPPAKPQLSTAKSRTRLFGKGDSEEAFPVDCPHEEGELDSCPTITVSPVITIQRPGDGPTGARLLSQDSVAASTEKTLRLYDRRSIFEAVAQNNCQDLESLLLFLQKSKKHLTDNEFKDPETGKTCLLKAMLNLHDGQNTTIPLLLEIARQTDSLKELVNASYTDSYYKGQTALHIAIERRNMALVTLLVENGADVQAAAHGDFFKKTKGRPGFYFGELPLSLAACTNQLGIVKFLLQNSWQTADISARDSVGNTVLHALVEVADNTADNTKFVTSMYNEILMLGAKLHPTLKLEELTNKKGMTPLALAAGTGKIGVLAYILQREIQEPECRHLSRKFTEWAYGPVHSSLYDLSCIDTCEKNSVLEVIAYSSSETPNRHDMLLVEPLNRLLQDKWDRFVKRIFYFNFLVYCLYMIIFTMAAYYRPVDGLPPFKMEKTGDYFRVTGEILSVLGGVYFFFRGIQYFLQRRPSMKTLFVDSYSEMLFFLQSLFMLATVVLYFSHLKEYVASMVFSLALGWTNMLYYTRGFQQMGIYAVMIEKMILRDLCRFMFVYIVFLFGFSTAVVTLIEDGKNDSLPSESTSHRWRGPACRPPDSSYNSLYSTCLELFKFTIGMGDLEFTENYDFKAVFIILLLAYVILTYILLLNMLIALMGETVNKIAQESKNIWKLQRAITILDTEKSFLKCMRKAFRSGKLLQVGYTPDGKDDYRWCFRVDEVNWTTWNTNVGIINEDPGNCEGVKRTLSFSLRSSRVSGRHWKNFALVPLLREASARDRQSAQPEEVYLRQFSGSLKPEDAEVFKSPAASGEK
row,SMILES,inhibition of calcium ion influx induced by capsaicin stimulation
1,CCNC(=O)c1ccc(/C=C/C(C)C)cc1 [Compound 126],++ (compound exhibited 25-50% inhibition of calcium ion influx induced by capsaicin stimulation)
2,CC(C)/C=C/c1ccc(C(=O)NCc2cccs2)cc1 [Compound 127],++ (compound exhibited 25-50% inhibition of calcium ion influx induced by capsaicin stimulation)
3,CCN(CC)c1ccc(NC(=O)c2ccc(/C=C/C(C)C)cc2)cc1 [Compound 130],+++ (compound exhibited 50-75% inhibition of calcium ion influx induced by capsaicin stimulation)
4,COc1ccccc1NC(=O)c1ccc(/C=C/C(C)C)cc1 [Compound 132],+ (compound exhibited 0-25% inhibition of calcium ion influx induced by capsaicin stimulation)
5,CC(C)/C=C/c1ccc(C(=O)Nc2ccccc2Cl)cc1 [Compound 136],+ (compound exhibited 0-25% inhibition of calcium ion influx induced by capsaicin stimulation)
6,CC(C)/C=C/c1ccc(C(=O)NCC(C)C)cc1 [Compound 139],+ (compound exhibited 0-25% inhibition of calcium ion influx induced by capsaicin stimulation)
7,COc1ccc(CNC(=O)c2ccc(/C=C/C(C)C)cc2)cc1OC [Compound 142],+ (compound exhibited 0-25% inhibition of calcium ion influx induced by capsaicin stimulation)
8,CC(C)/C=C/c1ccc(C(=O)NCc2cccc(F)c2)cc1 [Compound 143],+ (compound exhibited 0-25% inhibition of calcium ion influx induced by capsaicin stimulation)
9,COc1ccc(NC(=O)c2ccc(/C=C/C(C)C)cc2)cc1Cl [Compound 145],+ (compound exhibited 0-25% inhibition of calcium ion influx induced by capsaicin stimulation)
10,CC(C)/C=C/c1ccc(C(=O)Nc2ccc(Cl)c(C(F)(F)F)c2)cc1 [Compound 148],+ (compound exhibited 0-25% inhibition of calcium ion influx induced by capsaicin stimulation)
11,CC(C)/C=C/c1ccc(C(=O)Nc2cccc(C#N)c2)cc1 [Compound 150],++ (compound exhibited 25-50% inhibition of calcium ion influx induced by capsaicin stimulation)
12,CC(C)/C=C/c1ccc(C(=O)Nc2ccccc2CCO)cc1 [Compound 151],+++ (compound exhibited 50-75% inhibition of calcium ion influx induced by capsaicin stimulation)
13,CC(C)/C=C/c1ccc(C(=O)Nc2ccc(C(C)C)cc2)cc1 [Compound 153],++++ (compound exhibited 75% or greater inhibition of calcium ion influx induced by capsaicin stimulation)
14,Cc1ccc(NC(=O)c2ccc(/C=C/C(C)C)cc2)c(C)c1 [Compound 156],+ (compound exhibited 0-25% inhibition of calcium ion influx induced by capsaicin stimulation)
15,CC(C)/C=C/c1ccc(C(=O)Nc2ccc3[nH]ccc3c2)cc1 [Compound 158],++ (compound exhibited 25-50% inhibition of calcium ion influx induced by capsaicin stimulation)
16,CCC(C)(C)NC(=O)c1ccc(/C=C/C(C)C)cc1 [Compound 164],+ (compound exhibited 0-25% inhibition of calcium ion influx induced by capsaicin stimulation)
17,CC(C)/C=C/c1ccc(C(=O)Nc2ccc(Cl)nc2)cc1 [Compound 166],+ (compound exhibited 0-25% inhibition of calcium ion influx induced by capsaicin stimulation)
18,CC(C)/C=C/c1ccc(C(=O)Nc2ccnc(Cl)c2)cc1 [Compound 168],+ (compound exhibited 0-25% inhibition of calcium ion influx induced by capsaicin stimulation)

row,SMILES,inhibition of calcium ion influx induced by capsaicin stimulation
1,CC(C)/C=C/c1ccc(C(=O)Nc2ccc3c(c2)OCO3)cc1 [Compound 169],+++ (compound exhibited 50-75% inhibition of calcium ion influx induced by capsaicin stimulation)
2,CC(C)/C=C/c1ccc(C(=O)Nc2ccc3ncccc3c2)cc1 [Compound 171],++ (compound exhibited 25-50% inhibition of calcium ion influx induced by capsaicin stimulation)
3,CCn1c2ccccc2c2cc(NC(=O)c3ccc(/C=C/C(C)C)cc3)ccc21 [Compound 172],++ (compound exhibited 25-50% inhibition of calcium ion influx induced by capsaicin stimulation)
4,CC(C)/C=C/c1ccc(C(=O)Nc2ccc3c(c2)Cc2ccccc2-3)cc1 [Compound 175],+ (compound exhibited 0-25% inhibition of calcium ion influx induced by capsaicin stimulation)
5,CCC/C=C/c1ccc(C(=O)NC(C)C)cc1 [Compound 179],+ (compound exhibited 0-25% inhibition of calcium ion influx induced by capsaicin stimulation)
6,CCC/C=C/c1ccc(C(=O)NC2CCCCC2)cc1 [Compound 181],+ (compound exhibited 0-25% inhibition of calcium ion influx induced by capsaicin stimulation)
7,CCC/C=C/c1ccc(C(=O)NCc2ccco2)cc1 [Compound 183],+ (compound exhibited 0-25% inhibition of calcium ion influx induced by capsaicin stimulation)
8,CCC/C=C/c1ccc(C(=O)NCc2ccc(C(C)C)cc2)cc1 [Compound 185],+ (compound exhibited 0-25% inhibition of calcium ion influx induced by capsaicin stimulation)
9,CCC/C=C/c1ccc(C(=O)NCCCn2ccnc2)cc1 [Compound 190],+ (compound exhibited 0-25% inhibition of calcium ion influx induced by capsaicin stimulation)
10,CCC/C=C/c1ccc(C(=O)NC(c2ccccc2)c2ccccc2)cc1 [Compound 191],+ (compound exhibited 0-25% inhibition of calcium ion influx induced by capsaicin stimulation)
11,CCC/C=C/c1ccc(C(=O)NCCN2CCCC2)cc1 [Compound 192],+ (compound exhibited 0-25% inhibition of calcium ion influx induced by capsaicin stimulation)
12,CCC/C=C/c1ccc(C(=O)NCCCCC)cc1 [Compound 193],++ (compound exhibited 25-50% inhibition of calcium ion influx induced by capsaicin stimulation)
13,CCC/C=C/c1ccc(C(=O)NCCc2ccccc2Cl)cc1 [Compound 194],+ (compound exhibited 0-25% inhibition of calcium ion influx induced by capsaicin stimulation)
14,CCC/C=C/c1ccc(C(=O)NCc2ccccc2)cc1 [Compound 196],+ (compound exhibited 0-25% inhibition of calcium ion influx induced by capsaicin stimulation)
15,CCC/C=C/c1ccc(C(=O)NCCCC)cc1 [Compound 197],+ (compound exhibited 0-25% inhibition of calcium ion influx induced by capsaicin stimulation)
16,CCC/C=C/c1ccc(C(=O)NCCC)cc1 [Compound 198],++ (compound exhibited 25-50% inhibition of calcium ion influx induced by capsaicin stimulation)
17,CCC/C=C/c1ccc(C(=O)Nc2ccncc2)cc1 [Compound 202],+ (compound exhibited 0-25% inhibition of calcium ion influx induced by capsaicin stimulation)
18,CCC/C=C/c1ccc(C(=O)Nc2cccnc2)cc1 [Compound 203],+ (compound exhibited 0-25% inhibition of calcium ion influx induced by capsaicin stimulation)
